Values belong to the compound of their own block, whether it stands above or below them.
Test system: 292921-168-R-J2-PDC complex spheroid growth
Assay: Anticancer human tumor 292921-168-R-J2-PDC patient-derived pancreatic carcinoma cell line growth inhibition [AhR]
Conditions: for IC50: curve of first compound; for viability, T/C: stronger effect = lower value
Source text: Multicellular complex tumor spheroid response to aryl hydrocarbon receptor antagonists in combination with a variety of drugs and investigational agents in selected tumor cell lines
The current study was undertaken to assess response to aryl hydrocarbon receptor antagonists in combination with standard-of-care drugs and investigational agents in solid tumor complex spheroid models. Complex spheroids include a stromal component modeled by human endothelial cells (HUVEC) and fibroblasts modeled by human mesenchymal stem cells (MSCs). The concentration ranges selected for each drug and investigational agent were based upon clinically achievable concentrations if the clinical Cmax of the agent was known.
Compounds. The drugs and investigational agents: BAY 2416964 (NSC825713), GNF351 (NSC835774), CH-223191 (NSC835775), CPI-455 (NSC825282), aza-TdCyd (NSC777586), decitabine (NSC127716), belinostat (NSC758774), entinostat (NSC756642), pevonedistat (NSC761192), tazemetostat (NSC777109), talazoparib (NSC765396), olaparib (NSC753686), selinexor (NSC780203), nedisertib (M3814, NSC802822), bortezomib (NSC756655), venetoclax (NSC766270), doxorubicin (NSC123127), elimusertib (BAY189344, NSC800525), ceralasertib (AZD6738, NSC777638), TAK-243 (NSC785004), alisertib (NSC759677), etoposide (NSC141540), topotecan (NSC609699), eribulin (NSC707389), gemcitabine (NSC613327), carboplatin (NSC241240), cisplatin (NSC119875), and SN-38 (NSC673596) were obtained from the National Cancer Institute (NCI) Developmental Therapeutics Program Chemical Repository (32). The FDA-approved anticancer drug set is available from the Developmental Therapeutics Program at https://dtp.cancer.gov/organization/dscb/obtaining/available plates.htm. […] The stock solutions were prepared in dimethyl sulfoxide (DMSO, Sigma-Aldrich, St. Louis, MO, cat. D2650), except for the platinum compounds which were prepared in saline (Quality Biological, Gaithersburg, MD, cat. 114-055-101), at 800-fold the tested concentration and stored at -70 degrees C prior to their use. All drugs and investigational agents were tested over a range starting from a high concentration at or near the clinical Cmax and decreasing in half-log increments. If the clinical Cmax for an agent had not been determined, the highest concentration tested was 10 microM (Table 1).
Cell Culture. All cells were maintained in an incubator at 37 degrees C and 5% CO2 with 95% humidity. The PDC lines were cultured according to standard operating procedures established by the NCI PDMR (https://pdmr.cancer.gov). Briefly, all PDCs were thawed and cultured in Matrigel-coated flasks prepared with a working solution of 1X Ham's F-12 nutrient mix, without supplementation (Invitrogen, Waltham, MA, cat. 11765054), 100 U/mL penicillin-streptomycin (Invitrogen, cat. 15140122), and 2.5% Matrigel (Corning Inc., Corning, NY, cat. 354248) for the first three passages. All PDCs were cultured in complete DMEM/F-12 media containing advanced DMEM/F-12 (Invitrogen, cat. 12634028), 4.9% defined fetal bovine serum, heat inactivated (HyClone Laboratories Inc., Logan, UT, cat. SH30070.03HI), 389 ng/mL hydrocortisone (Sigma-Aldrich, cat. H4001), 9.7 ng/mL human EGF recombinant protein (Invitrogen, cat. PHG0313), 23.4 microg/mL adenine (Sigma-Aldrich, cat. A2786), 97.3 U/mL penicillin-streptomycin (Invitrogen, cat. 15140122), 1.9 mM L-glutamine (Invitrogen, cat. 25030081), and 9.7 microM Y-27632 dihydrochloride (Tocris Bioscience, Bristol, United Kingdom, cat. 1254). The PDCs were cultured in complete DMEM/F12 media without 10 microM Y-27632 dihydrochloride for at least two passages prior to the screen. The established cell lines NCI-H1341 and […] were cultured in DMEM/F-12, HEPES (Invitrogen, cat. 11330032), 5% defined fetal bovine serum (HyClone Laboratories Inc., cat. SH30070.03), ITS premix universal culture supplement [insulin (5 microg/mL), transferrin (5 microg/mL), and selenious acid (5 ng/mL)] […]

[1] = second compound 0.1 µM, first compound 0.0316 µM
[2] = second compound 0.1 µM, first compound 0.1 µM
[3] = second compound 0.316 µM, first compound 0.0316 µM
[4] = second compound 0.316 µM, first compound 0.1 µM
[5] = second compound 1 µM, first compound 0.0316 µM
[6] = second compound 1 µM, first compound 0.1 µM
[7] = second compound 3.16 µM, first compound 0.0316 µM
[8] = second compound 3.16 µM, first compound 0.1 µM
[9] = second compound 10 µM, first compound 0.0316 µM
[10] = second compound 10 µM, first compound 0.1 µM
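Further: spheroids exposed to compounds for seven days after three days of growth.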

- IC50 (second compound 0.1 µM): 29.2 nM
- IC50 (second compound 0.316 µM): 28.1 nM
- IC50 (second compound 1 µM): 30.7 nM
- IC50 (second compound 3.16 µM): 25.5 nM
- IC50 (second compound 10 µM): 18.4 nM
Structure (SMILES): CC[C@@]1(O)C(=O)OCc2c1cc1n(c2=O)Cc2cc3c(CN(C)C)c(O)ccc3nc2-1 + CC(CO)NC(=O)c1cc(-c2ccc(Cl)cc2)nn(-c2cnn(C)c2)c1=O
- viability, T/C (second compound 0.1 µM, first compound 0.000316 µM): 101%
- viability, T/C (second compound 0.1 µM, first compound 0.001 µM): 99.9%
- viability, T/C (second compound 0.1 µM, first compound 0.00316 µM): 100%
- viability, T/C (second compound 0.1 µM, first compound 0.01 µM): 78.6%
- viability, T/C [1]: 48.6%
- viability, T/C [2]: 21.8%
- viability, T/C (second compound 0.316 µM, first compound 0.000316 µM): 104%
- viability, T/C (second compound 0.316 µM, first compound 0.001 µM): 103%
- viability, T/C (second compound 0.316 µM, first compound 0.00316 µM): 106%
- viability, T/C (second compound 0.316 µM, first compound 0.01 µM): 75.2%
- viability, T/C [3]: 49.3%
- viability, T/C [4]: 24%
- viability, T/C (second compound 1 µM, first compound 0.000316 µM): 101%
- viability, T/C (second compound 1 µM, first compound 0.001 µM): 98.2%
- viability, T/C (second compound 1 µM, first compound 0.00316 µM): 99.5%
- viability, T/C (second compound 1 µM, first compound 0.01 µM): 77.4%
- viability, T/C [5]: 50.4%
- viability, T/C [6]: 23.3%
- viability, T/C (second compound 3.16 µM, first compound 0.000316 µM): 91.4%
- viability, T/C (second compound 3.16 µM, first compound 0.001 µM): 81.6%
- viability, T/C (second compound 3.16 µM, first compound 0.00316 µM): 90.6%
- viability, T/C (second compound 3.16 µM, first compound 0.01 µM): 72.5%
- viability, T/C [7]: 45.1%
- viability, T/C [8]: 23.6%
- viability, T/C (second compound 10 µM, first compound 0.000316 µM): 68%
- viability, T/C (second compound 10 µM, first compound 0.001 µM): 67.7%
- viability, T/C (second compound 10 µM, first compound 0.00316 µM): 63.1%
- viability, T/C (second compound 10 µM, first compound 0.01 µM): 62%
- viability, T/C [9]: 40%
- viability, T/C [10]: 22%

- IC50 (second compound 0.1 µM): 1.79 nM
- IC50 (second compound 0.316 µM): < 0.949 nM
- IC50 (second compound 1 µM): 1.02 nM
- IC50 (second compound 3.16 µM): < 0.949 nM
- IC50 (second compound 10 µM): < 0.949 nM
Structure (SMILES): CCc1c2c(nc3ccc(O)cc13)-c1cc3c(c(=O)n1C2)COC(=O)[C@]3(O)CC + CC(CO)NC(=O)c1cc(-c2ccc(Cl)cc2)nn(-c2cnn(C)c2)c1=O
- viability, T/C (second compound 0.1 µM, first compound 0.000949 µM): 55.6%
- viability, T/C (second compound 0.1 µM, first compound 0.003 µM): 46.4%
- viability, T/C (second compound 0.1 µM, first compound 0.00949 µM): 20.9%
- viability, T/C (second compound 0.1 µM, first compound 0.03 µM): 12.4%
- viability, T/C (second compound 0.1 µM, first compound 0.0949 µM): 5.44%
- viability, T/C (second compound 0.1 µM, first compound 0.3 µM): 3.22%
- viability, T/C (second compound 0.316 µM, first compound 0.000949 µM): 49.2%
- viability, T/C (second compound 0.316 µM, first compound 0.003 µM): 42%
- viability, T/C (second compound 0.316 µM, first compound 0.00949 µM): 22.7%
- viability, T/C (second compound 0.316 µM, first compound 0.03 µM): 12%
- viability, T/C (second compound 0.316 µM, first compound 0.0949 µM): 6.1%
- viability, T/C (second compound 0.316 µM, first compound 0.3 µM): 3.45%
- viability, T/C (second compound 1 µM, first compound 0.000949 µM): 49.8%
- viability, T/C (second compound 1 µM, first compound 0.003 µM): 43.3%
- viability, T/C (second compound 1 µM, first compound 0.00949 µM): 21.9%
- viability, T/C (second compound 1 µM, first compound 0.03 µM): 12.9%
- viability, T/C (second compound 1 µM, first compound 0.0949 µM): 7.22%
- viability, T/C (second compound 1 µM, first compound 0.3 µM): 3.97%
- viability, T/C (second compound 3.16 µM, first compound 0.000949 µM): 44.4%
- viability, T/C (second compound 3.16 µM, first compound 0.003 µM): 32.9%
- viability, T/C (second compound 3.16 µM, first compound 0.00949 µM): 21.2%
- viability, T/C (second compound 3.16 µM, first compound 0.03 µM): 11.3%
- viability, T/C (second compound 3.16 µM, first compound 0.0949 µM): 6.34%
- viability, T/C (second compound 3.16 µM, first compound 0.3 µM): 3.5%
- viability, T/C (second compound 10 µM, first compound 0.000949 µM): 38.2%
- viability, T/C (second compound 10 µM, first compound 0.003 µM): 31.2%
- viability, T/C (second compound 10 µM, first compound 0.00949 µM): 20.5%
- viability, T/C (second compound 10 µM, first compound 0.03 µM): 12%
- viability, T/C (second compound 10 µM, first compound 0.0949 µM): 6.27%
- viability, T/C (second compound 10 µM, first compound 0.3 µM): 4.4%

- IC50 (second compound 0.1 µM): < 31.6 nM
- IC50 (second compound 0.316 µM): < 31.6 nM
- IC50 (second compound 1 µM): < 31.6 nM
- IC50 (second compound 3.16 µM): < 31.6 nM
- IC50 (second compound 10 µM): < 31.6 nM
Structure (SMILES): Nc1ccn(C2OC(CO)C(O)C2(F)F)c(=O)n1 (stereo not given) + CC(CO)NC(=O)c1cc(-c2ccc(Cl)cc2)nn(-c2cnn(C)c2)c1=O
- viability, T/C [1]: 11.7%
- viability, T/C [2]: 10.2%
- viability, T/C (second compound 0.1 µM, first compound 0.316 µM): 11.1%
- viability, T/C (second compound 0.1 µM, first compound 1 µM): 11.1%
- viability, T/C (second compound 0.1 µM, first compound 3.16 µM): 10.3%
- viability, T/C (second compound 0.1 µM, first compound 10 µM): 6.84%
- viability, T/C [3]: 11.8%
- viability, T/C [4]: 11.3%
- viability, T/C (second compound 0.316 µM, first compound 0.316 µM): 9.79%
- viability, T/C (second compound 0.316 µM, first compound 1 µM): 10.8%
- viability, T/C (second compound 0.316 µM, first compound 3.16 µM): 11.9%
- viability, T/C (second compound 0.316 µM, first compound 10 µM): 6.25%
- viability, T/C [5]: 12%
- viability, T/C [6]: 11.8%
- viability, T/C (second compound 1 µM, first compound 0.316 µM): 11.7%
- viability, T/C (second compound 1 µM, first compound 1 µM): 11.1%
- viability, T/C (second compound 1 µM, first compound 3.16 µM): 11.9%
- viability, T/C (second compound 1 µM, first compound 10 µM): 7.23%
- viability, T/C [7]: 12.2%
- viability, T/C [8]: 10.9%
- viability, T/C (second compound 3.16 µM, first compound 0.316 µM): 12.2%
- viability, T/C (second compound 3.16 µM, first compound 1 µM): 11%
- viability, T/C (second compound 3.16 µM, first compound 3.16 µM): 10.5%
- viability, T/C (second compound 3.16 µM, first compound 10 µM): 6.81%
- viability, T/C [9]: 14.2%
- viability, T/C [10]: 12.8%
- viability, T/C (second compound 10 µM, first compound 0.316 µM): 11.9%
- viability, T/C (second compound 10 µM, first compound 1 µM): 11.6%
- viability, T/C (second compound 10 µM, first compound 3.16 µM): 10.3%
- viability, T/C (second compound 10 µM, first compound 10 µM): 8.31%

Source: PubChem BioAssay AID1918994 (Molecular Pharmacology Branch, DTP, NCI, 2023)
